Data published in ChEMBL document CHEMBL5370603, “N-(2-Aminophenyl)-benzamide Inhibitors of Class I HDAC Enzymes with Antiproliferative and Antifibrotic Activity” (J Med Chem, 2023).
Calls of active or inactive are those of the source. The calls are words filed in the database; no cut-off is given here.

Key:
Mus musculus [1] = assay: Anti-fibrotic activity against BLM-induced pulmonary fibrosis C57BL/6 mouse model assessed as reduction in pulmonary edema by measuring decrease in total protein concentration in BALF at 30 mg/kg, ip bid for 15 days starting from 1 day before BLM challenge by Bradford assay; assay type: functional, organism-based; settings: time 15.0 day
[2] = molecular target: T1, Class 1 histone deacetylase (Homo sapiens) (UniProt Q13547+O15379+Q92769+Q9BY41); assay: Inhibition of class I HDAC in human A549 cells assessed as increase in histone H3 acetylation at 5 uM incubated for 48 hrs by immunoblot analysis; assay type: cell-based
Mus musculus [3] = assay: Anti-fibrotic activity against BLM-induced pulmonary fibrosis C57BL/6 mouse model assessed as reduction in soluble collagen protein level in BALF at 30 mg/kg, ip bid for 15 days starting from 1 day before BLM challenge by Direct Red assay; assay type: functional, organism-based; settings: time 15.0 day
Mus musculus [4] = assay: Anti-fibrotic activity against BLM-induced pulmonary fibrosis C57BL/6 mouse model assessed as reduction in pulmonary inflammation by measuring decrease in cell number infiltration in BALF at 30 mg/kg, ip bid for 15 days starting from 1 day before BLM challenge by hematocytometer analysis; assay type: functional, organism-based; settings: time 15.0 day
Histone deacetylase 3 = Histone deacetylase 3 (Homo sapiens, UniProt O15379); assay: Inhibition of human recombinant HDAC3 using Ac-Leu-Gly-Lys(Ac)-AMC as substrate preincubated with enzyme for 30 mins followed by substrate addition and measured after 90 mins by fluorescence based analysis
[5] = Toxicity against human primary lung fibroblasts assessed as effect on cell viability upto 20 uM incubated for 72 hrs by MTT assay; assay type: cell-based; settings: fibroblast
Histone deacetylase 1 = Histone deacetylase 1 (Homo sapiens, UniProt Q13547); assay: Inhibition of human recombinant HDAC1 using Ac-Leu-Gly-Lys(Ac)-AMC as substrate preincubated with enzyme for 30 mins followed by substrate addition and measured after 90 mins by fluorescence based analysis
Histone deacetylase 4 = Histone deacetylase 4 (Homo sapiens, UniProt P56524); assay: Inhibition of N-terminal GST-tagged/C-terminal His tagged human recombinant HDAC4 (627 to 1084 residues) expressed in baculovirus-infected Sf9 cells using Ac-Leu-Gly-Lys(trifluoroAc)-AMC as substrate preincubated with enzyme for 15 mins followed by substrate addition and measured after 60 mins by fluorescence based analysis
Mus musculus [6] = assay: Anti-fibrotic activity against BLM-induced pulmonary fibrosis C57BL/6 mouse model assessed as reduction in Col1a1 gene expression in lungs at 30 mg/kg, ip bid for 15 days starting from 1 day before BLM challenge by qRT-PCR analysis; assay type: functional, organism-based; settings: time 15.0 day
Mus musculus [7] = assay: Anti-fibrotic activity against BLM-induced pulmonary fibrosis C57BL/6 mouse model assessed as reduction in collagen deposition in lungs at 30 mg/kg, ip bid for 15 days starting from 1 day before BLM challenge by Sirius Red staining based analysis; assay type: functional, organism-based; settings: time 15.0 day
Fibroblast = assay: Anti-fibrotic activity in human primary lung fibroblast assessed as inhibition of TGFbeta1-induced COL1A1 mRNA expression at 5 to 10 uM pretreated for 1 hr followed by TGFbeta1 stimulation and measured after 24 hrs by qRT-PCR analysis; assay type: functional, cell-based; settings: dose 5-10 µM, time 25.0 hrs
[8] = molecular target: T2, Protein deacetylase HDAC6 (Homo sapiens) (UniProt Q9UBN7); assay: Inhibition of HDAC6 in human A549 cells assessed as increase in acetylated alpha-tubulin level at 5 uM incubated for 48 hrs by immunoblot analysis; assay type: cell-based
T2 sequence (whole entry): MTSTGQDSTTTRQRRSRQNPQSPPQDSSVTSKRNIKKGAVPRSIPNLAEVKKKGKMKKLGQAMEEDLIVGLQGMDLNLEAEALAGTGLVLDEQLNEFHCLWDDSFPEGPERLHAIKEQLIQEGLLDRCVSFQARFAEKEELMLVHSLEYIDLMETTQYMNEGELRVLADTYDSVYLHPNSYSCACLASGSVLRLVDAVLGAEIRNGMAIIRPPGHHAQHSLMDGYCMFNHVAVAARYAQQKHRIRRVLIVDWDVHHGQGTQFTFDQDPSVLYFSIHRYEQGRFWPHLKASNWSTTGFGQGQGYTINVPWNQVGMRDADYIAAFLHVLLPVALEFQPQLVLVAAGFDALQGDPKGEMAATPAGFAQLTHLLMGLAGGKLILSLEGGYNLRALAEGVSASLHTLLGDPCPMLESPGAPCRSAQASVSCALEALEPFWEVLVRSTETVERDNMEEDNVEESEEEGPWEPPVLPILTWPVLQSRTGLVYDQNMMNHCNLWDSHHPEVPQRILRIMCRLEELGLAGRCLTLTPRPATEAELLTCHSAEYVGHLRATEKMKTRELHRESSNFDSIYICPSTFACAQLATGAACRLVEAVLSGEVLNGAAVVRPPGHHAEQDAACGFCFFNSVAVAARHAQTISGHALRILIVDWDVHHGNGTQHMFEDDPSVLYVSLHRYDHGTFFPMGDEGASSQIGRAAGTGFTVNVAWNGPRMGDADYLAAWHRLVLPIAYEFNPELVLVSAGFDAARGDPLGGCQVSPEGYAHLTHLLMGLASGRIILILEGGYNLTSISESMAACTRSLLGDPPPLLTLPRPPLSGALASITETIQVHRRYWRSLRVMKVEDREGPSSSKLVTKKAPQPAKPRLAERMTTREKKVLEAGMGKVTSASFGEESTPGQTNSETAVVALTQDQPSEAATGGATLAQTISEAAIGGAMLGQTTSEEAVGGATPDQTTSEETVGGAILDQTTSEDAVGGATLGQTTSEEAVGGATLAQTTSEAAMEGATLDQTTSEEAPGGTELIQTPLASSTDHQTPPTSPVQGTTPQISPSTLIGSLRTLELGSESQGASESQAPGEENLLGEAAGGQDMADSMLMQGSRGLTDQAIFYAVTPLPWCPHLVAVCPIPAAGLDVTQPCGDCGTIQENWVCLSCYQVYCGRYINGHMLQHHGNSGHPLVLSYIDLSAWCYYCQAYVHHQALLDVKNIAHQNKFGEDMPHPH

Mus musculus [9] = assay: Anti-fibrotic activity against BLM-induced pulmonary fibrosis C57BL/6 mouse model assessed as reduction in fibrotic masses in lungs at 30 mg/kg, ip bid for 15 days starting from 1 day before BLM challenge by Hematoxylin-Eosin staining based analysis; assay type: functional, organism-based; settings: time 15.0 day
Histone deacetylase 8 = molecular target: T3, Histone deacetylase 8 (Homo sapiens, UniProt Q9BY41); assay: Inhibition of C-terminal His-tagged human recombinant full length HDAC8 (1 to 377 residues) expressed in Sf9 cells using Ac-Leu-Gly-Lys(trifluoroAc)-AMC as substrate preincubated with enzyme for 30 mins followed by substrate addition and measured after 90 mins by fluorescence based analysis
T3 sequence (Q9BY41 whole entry): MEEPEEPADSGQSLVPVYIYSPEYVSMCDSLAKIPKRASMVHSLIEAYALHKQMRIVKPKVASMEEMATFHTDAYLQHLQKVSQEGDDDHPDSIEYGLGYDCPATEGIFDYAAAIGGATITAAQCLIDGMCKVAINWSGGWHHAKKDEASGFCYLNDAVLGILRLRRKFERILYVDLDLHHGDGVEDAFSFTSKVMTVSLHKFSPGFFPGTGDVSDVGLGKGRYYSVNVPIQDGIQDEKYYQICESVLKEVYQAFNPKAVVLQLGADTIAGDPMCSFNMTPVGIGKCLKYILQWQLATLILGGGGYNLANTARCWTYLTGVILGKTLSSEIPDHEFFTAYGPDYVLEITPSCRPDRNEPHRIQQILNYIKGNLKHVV

[10] = molecular target: T4, Protein deacetylase HDAC6 (Homo sapiens, UniProt Q9UBN7); assay: Inhibition of C-terminal FLAG-tagged human recombinant full length HDAC6 expressed in baculovirus expression system using Boc-Lys(Ac)-AMC as substrate preincubated with enzyme for 15 mins followed by substrate addition and measured after 60 mins by fluorescence based analysis
T4 sequence (Q9UBN7 whole entry): T2 sequence (whole entry)

[11] = molecular target: T1, Class 1 histone deacetylase (Homo sapiens); assay: Inhibition of class I HDAC in human A549 cells assessed as downregulation of EGFR protein expression at 5 uM incubated for 48 hrs by western blot analysis; assay type: cell-based
A549 = assay: Antiproliferative activity against human A549 cells assessed as inhibition of cell growth incubated for 72 hrs by MTT assay; assay type: functional, cell-based; settings: A549, 72 h
SF-268 = assay: Antiproliferative activity against human SF-268 cells assessed as inhibition of cell growth incubated for 72 hrs by MTT assay; assay type: functional, cell-based; settings: SF-268, 72 h
Histone deacetylase 2 = Histone deacetylase 2 (Homo sapiens, UniProt Q92769); assay: Inhibition of human recombinant HDAC2 using Ac-Leu-Gly-Lys(Ac)-AMC as substrate preincubated with enzyme for 30 mins followed by substrate addition and measured after 90 mins by fluorescence based analysis
Caco-2 = assay: Antiproliferative activity against human Caco-2 cells assessed as inhibition of cell growth incubated for 72 hrs by MTT assay; assay type: functional, cell-based; settings: Caco-2, 72 h

Sequence of Histone deacetylase 1 (Q13547 whole entry, the tested form may be a part): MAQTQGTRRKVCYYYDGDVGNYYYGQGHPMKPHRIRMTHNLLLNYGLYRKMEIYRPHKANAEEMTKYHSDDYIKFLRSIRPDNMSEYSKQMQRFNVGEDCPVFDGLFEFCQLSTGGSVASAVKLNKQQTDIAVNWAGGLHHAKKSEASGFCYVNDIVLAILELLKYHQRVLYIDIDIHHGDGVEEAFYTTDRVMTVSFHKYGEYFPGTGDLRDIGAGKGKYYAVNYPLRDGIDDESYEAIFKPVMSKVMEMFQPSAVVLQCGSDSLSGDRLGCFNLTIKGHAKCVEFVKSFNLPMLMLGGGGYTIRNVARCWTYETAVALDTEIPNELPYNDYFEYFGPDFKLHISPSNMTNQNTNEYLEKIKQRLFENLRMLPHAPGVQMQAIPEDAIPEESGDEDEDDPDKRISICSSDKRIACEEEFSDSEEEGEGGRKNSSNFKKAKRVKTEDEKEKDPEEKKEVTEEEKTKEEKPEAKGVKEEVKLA
Sequence of Histone deacetylase 4 (P56524 whole entry, the tested form may be a part): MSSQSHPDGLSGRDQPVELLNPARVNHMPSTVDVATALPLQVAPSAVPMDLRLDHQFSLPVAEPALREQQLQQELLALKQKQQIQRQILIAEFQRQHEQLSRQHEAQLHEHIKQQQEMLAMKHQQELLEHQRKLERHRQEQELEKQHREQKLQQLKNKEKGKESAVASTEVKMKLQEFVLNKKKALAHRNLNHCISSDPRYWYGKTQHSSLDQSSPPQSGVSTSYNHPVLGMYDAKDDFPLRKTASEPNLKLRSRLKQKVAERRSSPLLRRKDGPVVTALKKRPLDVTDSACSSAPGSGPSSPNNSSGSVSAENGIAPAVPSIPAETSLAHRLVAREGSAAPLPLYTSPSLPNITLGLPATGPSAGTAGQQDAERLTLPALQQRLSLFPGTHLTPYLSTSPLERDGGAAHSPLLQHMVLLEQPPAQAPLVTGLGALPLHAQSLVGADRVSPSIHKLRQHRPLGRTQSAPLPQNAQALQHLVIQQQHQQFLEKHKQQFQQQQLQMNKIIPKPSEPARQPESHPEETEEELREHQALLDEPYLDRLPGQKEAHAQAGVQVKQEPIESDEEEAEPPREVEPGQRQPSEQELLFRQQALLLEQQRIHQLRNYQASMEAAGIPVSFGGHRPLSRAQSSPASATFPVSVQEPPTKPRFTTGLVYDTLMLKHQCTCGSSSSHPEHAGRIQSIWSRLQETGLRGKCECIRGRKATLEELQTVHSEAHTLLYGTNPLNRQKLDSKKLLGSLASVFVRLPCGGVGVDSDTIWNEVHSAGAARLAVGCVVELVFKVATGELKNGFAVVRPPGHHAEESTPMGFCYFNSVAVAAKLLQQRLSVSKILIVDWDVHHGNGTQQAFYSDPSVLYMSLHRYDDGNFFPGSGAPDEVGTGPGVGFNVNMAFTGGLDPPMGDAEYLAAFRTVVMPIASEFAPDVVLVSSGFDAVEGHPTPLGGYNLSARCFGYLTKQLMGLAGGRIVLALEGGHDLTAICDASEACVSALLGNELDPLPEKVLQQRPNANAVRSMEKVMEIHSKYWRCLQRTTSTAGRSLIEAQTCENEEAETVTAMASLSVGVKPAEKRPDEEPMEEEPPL
Sequence of Histone deacetylase 3 (O15379 whole entry): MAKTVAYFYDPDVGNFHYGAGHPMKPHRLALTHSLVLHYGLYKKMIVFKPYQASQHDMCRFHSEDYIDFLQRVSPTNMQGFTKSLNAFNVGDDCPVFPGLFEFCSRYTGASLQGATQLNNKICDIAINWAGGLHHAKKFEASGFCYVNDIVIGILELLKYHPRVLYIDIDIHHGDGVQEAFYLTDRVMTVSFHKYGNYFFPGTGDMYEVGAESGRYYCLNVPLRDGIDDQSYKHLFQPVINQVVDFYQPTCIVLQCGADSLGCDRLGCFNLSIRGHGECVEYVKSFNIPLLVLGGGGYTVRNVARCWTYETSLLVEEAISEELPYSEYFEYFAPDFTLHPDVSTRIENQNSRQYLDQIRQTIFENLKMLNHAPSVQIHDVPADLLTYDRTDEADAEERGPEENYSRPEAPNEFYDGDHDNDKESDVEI
Sequence of Histone deacetylase 2 (Q92769 whole entry): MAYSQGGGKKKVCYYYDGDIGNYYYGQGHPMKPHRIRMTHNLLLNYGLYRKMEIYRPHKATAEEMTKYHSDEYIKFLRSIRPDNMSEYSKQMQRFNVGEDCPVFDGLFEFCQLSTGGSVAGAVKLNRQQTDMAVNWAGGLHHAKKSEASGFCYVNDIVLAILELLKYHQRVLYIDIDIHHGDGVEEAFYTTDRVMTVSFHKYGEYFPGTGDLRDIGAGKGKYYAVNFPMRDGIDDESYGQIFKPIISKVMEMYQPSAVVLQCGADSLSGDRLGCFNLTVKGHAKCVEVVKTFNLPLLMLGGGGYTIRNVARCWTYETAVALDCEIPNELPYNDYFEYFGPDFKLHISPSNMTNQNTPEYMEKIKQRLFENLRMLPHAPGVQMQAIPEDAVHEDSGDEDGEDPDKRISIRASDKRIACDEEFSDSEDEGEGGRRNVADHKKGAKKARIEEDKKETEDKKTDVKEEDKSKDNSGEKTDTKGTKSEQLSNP

| inhibition [2] | IC50 (Histone deacetylase 3) | IC50 (Histone deacetylase 1) | IC50 (Histone deacetylase 4) | inhibition [8] | IC50 (Histone deacetylase 8) | IC50 [10] | inhibition [11] | IC50 (A549) | IC50 (Histone deacetylase 2) | IC50 (Caco-2) | Structure (SMILES) | Activity (Mus musculus [1]) | Activity (Mus musculus [3]) | Activity (Mus musculus [4]) | Activity [5] | Activity (Mus musculus [6]) | Activity (Mus musculus [7]) | Activity (Fibroblast) | Activity (Mus musculus [9]) | IC50 (SF-268) |
| --- | --- | --- | --- | --- | --- | --- | --- | --- | --- | --- | --- | --- | --- | --- | --- | --- | --- | --- | --- | --- |
| Active | 0.139 µM | 0.259 µM | > 100 µM | inactive | > 10 µM | > 10 µM | Active | 6 µM | – | – | Cl.Cl.Nc1ccccc1NC(=O)c1ccc(COc2ccc(CNC(=O)[C@H]3CCCN3)cc2)cc1 | Active | Active | Active | Non-Toxic | Active | Active | Active | Active | 3.1 µM |
| – | 0.361 µM | 0.1 µM | > 100 µM | – | > 10 µM | > 100 µM | – | 6.8 µM | 0.116 µM | 1.9 µM | Nc1ccccc1NC(=O)c1ccc(COc2ccc(CNC(=O)[C@@H]3CCC(=O)N3Cc3ccccc3)cc2)cc1 | Active | Active | Active | Non-Toxic | Active | Active | Active | Active | 4.8 µM |
